Data as given in patent US9315502B2, “Imidazopyridine derivatives” (Hoffmann-La Roche Inc., priority 2012, dated 2016).

What was measured:
[1] = tested on: human embryonic stem cell derived neural stem cells (NSCs); test: Neural Stem Cell Proliferation Assay (neurogenesis assay, ATP levels by CellTiterGlo); format: cell-based; details: 96 h, compound concentration at which 150% activity of control (100%) is reached, NSC proliferation, 4 days incubation
Procedure: Neural Stem Cell Proliferation Assay
Neurogenic properties of small molecules are determined based on the proliferation of human embryonic stem cell derived neural stem cells (NSCs) which were derived via a dual smad inhibition as previously described (Chambers, S. M., et al., Highly efficient neural conversion of human ES and iPS cells by dual inhibition of SMAD signaling, Nature biotechnology, 2009. 27(3): p. 275-80.)
Compounds respond is measured by the increase in cells based on ATP levels
(Promega:CellTiterGlo®) after an incubation period of 4 days.
NSCs are thawed and expanded over 3 passages. On the 14th day, NSCs are seeded in Polyornithin/Laminin coated 384 well plates at a cell density of 21′000 cells/cm^2 in a media volume of 38 μl.
4 hours after cell seeding, compound solutions are added at a volume of 2 μl. Stock solutions of the compounds (water, 5% DMSO) are diluted to obtain a dose response (11 points, dilution factor is 2), ranging from 8 μM to 8 nM. Controls are run to consistently determine the neurogenic properties of the cells:
Negative (neutral) control is cell culture Media (final DMSO concentration: 0.25%). Positive controls are: • 1. cell culture Media+100 ng/ml FGF2 (final DMSO concentration: 0.1%) • 2. cell culture Media+20 ng/ml EGF (final DMSO concentration: 0.1%) • 3. cell culture Media+100 ng/ml Wnt3a (final DMSO concentration: 0.1%)
After 4 days incubation at 37° C., 5% CO2, the amount of ATP per well is quantified. The ATP concentration is proportional to the cell number. ATP is quantified by using the Promega CellTiterGlo® kit. The CellTiterGlo® reagents contain a cell lysis buffer, a thermo stable luciferase (UltraGlo™ recombinant luciferase), magnesium and luciferin. Luciferin reacts with ATP producing oxyluciferin, AMP and light. The luminescence signal is proportional to the ATP content.
The value of negative (neutral) control is determined for each assay plate by taking the average of 16 negative control wells. The neurogenic compound response is calculated for each compound as (compound/Negative Control)* 100.
The values of EC150 from the dose response curve are determined for each test compound. The EC150 is the compound concentration at which 150% activity of control (100%) is reached.

melting point [°C] | Compound | EC (150% of control) [1] [µM]
206 | Fc1ccc(-c2cnc3ccc(-c4cncn4-c4ccc(F)cc4)cn23)cc1 [Example 16, 3-(4-Fluoro-phenyl)-6-[3-(4-fluoro-phenyl)-3H-imidazol-4-yl]-imidazol[1,2-a]pyridine] | 0.053
201 | N#Cc1ccc(-c2cnc3ccc(-c4ccnn4-c4ccc(C(F)(F)F)cc4)cn23)cc1 [Example 24, 4-{6-[2-(4-Trifluoromethyl-phenyl)-2H-pyrazol-3-yl]-imidazo [1,2-a]pyridin-3-yl}-benzonitrile] | 2.6
107 | Cc1ccc(-n2nccc2-c2ccc3ncc(-c4ccccc4)n3c2)cc1 [Example 10, 3-Phenyl-6-(2-p-tolyl-2H-pyrazol-3-yl)-imidazo[1,2-a]pyridine] | 0.009
141 | Cc1ccc(-n2nccc2-c2ccc3ncc(-c4ccc(F)cc4)n3c2)cc1 [Example 5, 3-(4-Fluoro-phenyl)-6-(2-p-tolyl-2H-pyrazol-3-yl)-imidazo[1,2-a]pyridine] | 0.008
139 | c1ccc(-c2cnc3ccc(-c4ccnn4-c4ccccc4)cn23)cc1 [Example 8, 3-Phenyl-6-(2-phenyl-2H-pyrazol-3-yl)-imidazo[1,2-a]pyridine] | 0.019
226 | CS(=O)(=O)c1ccc(-c2cnc3ccc(-c4ccnn4-c4ccc(F)cc4)cn23)cc1 [Example 22, 6-[2-(4-Fluoro-phenyl)-2H-pyrazol-3-yl]-3-(4-methanesulfonyl-phenyl)-imidazo[1,2-a]pyridine] | 0.24
148 | Fc1cc(Cl)ccc1-c1cnc2ccc(-c3ccnn3-c3ccc(Cl)cc3)cn12 [Example 11, 3-(4-Chloro-2-fluoro-phenyl)-6-[2-(4-chloro-phenyl)-2H-pyrazol-3-yl]-imidazo[1,2-a]pyridine] | 0.089
168 | Fc1ccc(-n2nccc2-c2ccc3ncc(-c4ccc(F)cc4F)n3c2)cc1 [Example 14, 3-(2,4-Difluoro-phenyl)-6-[2-(4-fluoro-phenyl)-2H-pyrazol-3-yl]-imidazo[1,2-a]pyridine] | 0.053
259 | CS(=O)(=O)c1ccc(-c2cnc3ccc(-c4ccnn4-c4ccc(Cl)cc4)cn23)cc1 [Example 21, 6-[2-(4-Chloro-phenyl)-2H-pyrazol-3-yl]-3-(4-methanesulfonyl-phenyl)-imidazo[1,2-a]pyridine] | 0.25
215 | N#Cc1ccc(-c2cnc3ccc(-c4ccnn4-c4ccc(F)cc4)cn23)cc1 [Example 19, 4-{6-[2-(4-Fluoro-phenyl)-2H-pyrazol-3-yl]-imidazo [1,2-a]pyridin-3-yl}-benzonitrile] | 0.03
201 | Fc1ccc(-n2nccc2-c2ccc3ncc(-c4ccncc4)n3c2)cc1 [Example 6, 6-[2-(4-Fluoro-phenyl)-2H-pyrazol-3-yl]-3-pyridin-4-yl-imidazo [1,2-a]pyridine] | 0.026
208 | N#Cc1ccc(-c2cnc3ccc(-c4ccnn4-c4ccc(Cl)cc4)cn23)cc1 [Example 20, 4-{6-[2-(4-Chloro-phenyl)-2H-pyrazol-3-yl]-imidazo[1,2-a]pyridin-3-yl}-benzonitrile] | 0.04
187 | Fc1ccc(-n2nccc2-c2ccc3ncc(-c4ccc(Cl)cc4F)n3c2)cc1 [Example 9, 3-(4-Chloro-2-fluoro-phenyl)-6-[2-(4-fluoro-phenyl)-2H-pyrazol-3-yl]-imidazo[1,2-a]pyridine] | 0.055

Further lines, the molecule ahead of its results:

Compound | melting point [°C] | EC (150% of control) [1] [µM]
Fc1ccc(-c2cnc3ccc(-c4ccnn4-c4ccc(C(F)(F)F)cc4)cn23)cc1 [Example 23, 3-(4-Fluoro-phenyl)-6-[2-(4-trifluoromethyl-phenyl)-2H-pyrazol-3-yl]-imidazo[1,2-a]pyridine] | 147 | 0.79
Fc1ccc(-c2cnc3ccc(-c4ccnn4-c4ccc(F)cc4)cn23)cc1 [Example 1, 3-(4-Fluoro-phenyl)-6-[2-(4-fluoro-phenyl)-2H-pyrazol-3-yl]-imidazo[1,2-a]pyridine] | 172 | 0.019
Clc1ccc(-n2nccc2-c2ccc3ncc(-c4ccncc4)n3c2)cc1 [Example 7, 6-[2-(4-Chloro-phenyl)-2H-pyrazol-3-yl]-3-pyridin-4-yl-imidazo[1,2-a]pyridine] | 186 | 0.022
Fc1ccc(-n2nccc2-c2ccc3ncc(-c4ccc(Cl)cc4)n3c2)cc1 [Example 4, 3-(4-Chloro-phenyl)-6-[2-(4-fluoro-phenyl)-2H-pyrazol-3-yl]-imidazo [1,2-a]pyridine] | 171 | 0.092
Clc1ccc(-c2cnc3ccc(-c4ccnn4-c4ccc(Cl)cc4)cn23)cc1 [Example 2, 3-(4-Chloro-phenyl)-6-[2-(4-chloro-phenyl)-2H-pyrazol-3-yl]-imidazo[1,2-a]pyridine] | 172.5 | 0.1
COc1ccc(-c2cnc3ccc(-c4ccnn4-c4ccc(F)cc4)cn23)cc1 [Example 13, 6-[2-(4-Fluoro-phenyl)-2H-pyrazol-3-yl]-3-(4-methoxy-phenyl)-imidazo [1,2-a]pyridine] | 162 | 0.024
Fc1ccc(-c2cnc3ccc(-c4ccnn4-c4ccc(Cl)cc4)cn23)c(F)c1 [Example 15, 6-[2-(4-Chloro-phenyl)-2H-pyrazol-3-yl]-3-(2,4-difluoro-phenyl)-imidazo[1,2-a]pyridine] | 152 | 0.029
FC(F)(F)c1ccc(-c2cnc3ccc(-c4ccnn4-c4ccc(Cl)cc4)cn23)cc1 [Example 17, 6-[2-(4-Chloro-phenyl)-2H-pyrazol-3-yl]-3-(4-trifluoromethyl-phenyl)-imidazo[1,2-a]pyridine] | 167 | 0.38
Fc1ccc(-c2cnc3ccc(-c4ccnn4-c4ccc(Cl)cc4)cn23)cc1 [Example 3, 6-[2-(4-Chloro-phenyl)-2H-pyrazol-3-yl]-3-(4-fluoro-phenyl)-imidazo[1,2-a]pyridine] | 147 | 0.096
Fc1ccc(-n2nccc2-c2ccc3ncc(-c4ccc(C(F)(F)F)cc4)n3c2)cc1 [Example 18, 6-[2-(4-Fluoro-phenyl)-2H-pyrazol-3-yl]-3-(4-trifluoromethyl-phenyl)-imidazo[1,2-a]pyridine] | 172 | 0.18
COc1ccc(-c2cnc3ccc(-c4ccnn4-c4ccc(Cl)cc4)cn23)cc1 [Example 12, 6-[2-(4-Chloro-phenyl)-2H-pyrazol-3-yl]-3-(4-methoxy-phenyl)-imidazo [1,2-a]pyridine] | 142 | 0.045
